{"source": "ChEMBL document CHEMBL3132756", "about": "“Synthesis, structureactivity relationships and stereochemical investigations of new tricyclic pyridazinone derivatives as potential STAT3 inhibitors” (Medchemcomm, 2013)", "note": "Calls of active or inactive are those of the source. No cut-off for these calls is given here.", "data": [{"molecular_target": "Signal transducer and activator of transcription 3 (Homo sapiens) (UniProt P40763)", "sequence (P40763 whole entry, the tested form may be a part)": "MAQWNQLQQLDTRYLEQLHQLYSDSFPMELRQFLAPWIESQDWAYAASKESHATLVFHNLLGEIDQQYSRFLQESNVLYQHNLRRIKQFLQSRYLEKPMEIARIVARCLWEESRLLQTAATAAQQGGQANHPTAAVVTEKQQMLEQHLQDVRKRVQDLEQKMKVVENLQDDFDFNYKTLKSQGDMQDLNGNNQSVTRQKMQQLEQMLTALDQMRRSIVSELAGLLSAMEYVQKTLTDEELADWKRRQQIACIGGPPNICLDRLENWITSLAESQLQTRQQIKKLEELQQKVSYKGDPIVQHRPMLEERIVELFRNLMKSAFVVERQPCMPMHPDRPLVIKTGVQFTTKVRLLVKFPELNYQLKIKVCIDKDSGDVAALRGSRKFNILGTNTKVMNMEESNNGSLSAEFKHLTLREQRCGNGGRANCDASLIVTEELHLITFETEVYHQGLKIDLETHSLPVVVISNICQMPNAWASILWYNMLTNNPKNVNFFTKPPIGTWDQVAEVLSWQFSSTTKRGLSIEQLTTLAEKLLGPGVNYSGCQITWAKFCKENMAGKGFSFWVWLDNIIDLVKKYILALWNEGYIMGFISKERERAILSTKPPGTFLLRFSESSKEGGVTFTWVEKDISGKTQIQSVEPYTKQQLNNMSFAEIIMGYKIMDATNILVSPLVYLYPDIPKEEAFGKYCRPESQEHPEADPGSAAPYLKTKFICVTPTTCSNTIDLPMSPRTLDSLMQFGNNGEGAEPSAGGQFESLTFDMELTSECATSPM", "experiment": "Inhibition of STAT3 (unknown origin) expressed in human HCT116 cells at 10 uM by dual luciferase assay relative to (+) enantiomer", "assay_type": "cell-based", "settings": "HCT-116", "values": [{"smiles": "CCOC(=O)CCCN1N=C2c3ccccc3CC[C@H]2CC1=O", "fold change (FC)": 2}]}, {"molecular_target": "Signal transducer and activator of transcription 3 (Homo sapiens) (UniProt P40763)", "experiment": "Binding affinity to STAT3 SH2 domain (unknown origin) pre-incubated 15 mins before (FITC)-GpYLPQTV probe and measured after 90 mins by Alpha screen assay", "settings": "not given", "values": [{"smiles": "CCOC(=O)CCCN1N=C2c3ccccc3CCC2CC1=O", "note": "(racemic)", "Activity": "inactive"}]}, {"molecular_target": "Signal transducer and activator of transcription 3 (Homo sapiens) (UniProt P40763)", "experiment": "Inhibition of STAT3 (unknown origin) expressed in human HCT116 cells at 2 uM by dual luciferase assay", "assay_type": "cell-based", "settings": "HCT-116", "units": {"inhibition": "%"}, "values": [{"smiles": "CCOC(=O)CCCN1N=C2c3cc(OC)cc(OC)c3CCC2CC1=O", "note": "(stereo unspecified)", "inhibition": 23}, {"smiles": "C[C@H]1COC2=C1C(=O)C(=O)c1c2ccc2c1CCCC2(C)C", "inhibition": 25}, {"smiles": "CCCCCN1N=C2c3ccccc3CCC2CC1=O", "note": "(stereo unspecified)", "inhibition": 22}, {"smiles": "O=C(O)CCN1N=C2c3ccccc3CCC2CC1=O", "note": "(stereo unspecified)", "inhibition": -2}, {"smiles": "CCOC(=O)CCCN1N=C2c3ccccc3CC2CC1=O", "note": "(stereo unspecified)", "inhibition": 28}, {"smiles": "CCOC(=O)CCCN1N=C2c3ccc(Cl)cc3CCC2CC1=O", "note": "(stereo unspecified)", "inhibition": 9}, {"smiles": "CCOC(=O)CCCn1nc2c(cc1=O)CCc1ccccc1-2", "inhibition": 1}, {"smiles": "CCNC(=O)CCCN1N=C2c3ccccc3CCC2CC1=O", "note": "(stereo unspecified)", "inhibition": 16}, {"smiles": "CCOC(=O)CCCCCCN1N=C2c3ccccc3CCC2CC1=O", "note": "(stereo unspecified)", "inhibition": 22}, {"smiles": "O=C1CC2CCc3ccccc3C2=NN1", "note": "(stereo unspecified)", "inhibition": -6}, {"smiles": "CCOC(=O)CCCCN1N=C2c3ccccc3CCC2CC1=O", "note": "(stereo unspecified)", "inhibition": 21}, {"smiles": "CCNCCCCN1N=C2c3ccccc3CCC2CC1=O", "note": "(stereo unspecified)", "inhibition": 3}, {"smiles": "O=C(O)CCCN1N=C2c3ccccc3CCC2CC1=O", "note": "(stereo unspecified)", "inhibition": 8}, {"smiles": "O=C1CC2CCc3ccccc3C2=NN1CCCc1nn[nH]n1", "note": "(stereo unspecified)", "inhibition": -9}, {"smiles": "CCOC(=O)CN1N=C2c3ccccc3CCC2CC1=O", "note": "(stereo unspecified)", "inhibition": 3}, {"smiles": "CCOC(=O)CCCCCN1N=C2c3ccccc3CCC2CC1=O", "note": "(stereo unspecified)", "inhibition": 25}, {"smiles": "CCCCN1N=C2c3ccccc3CCC2CC1=O", "note": "(stereo unspecified)", "inhibition": -9}, {"smiles": "CCOC(=O)CCN1N=C2c3ccccc3CCC2CC1=O", "note": "(stereo unspecified)", "inhibition": 30}, {"smiles": "CCOC(=O)CCCN1N=C2c3ccccc3CCC2CC1=O", "note": "(racemic)", "inhibition": 46}]}]}
